Measured values: the NIST ThermoML archive (doi:10.1016/j.jct.2004.06.001)

Assay: mn = molality of the nth substance listed, in mol/kg
Conditions: Liquid

[I-].[Li+] [lithium iodide] + O
Conditions	mass density [kg/m3]
296.95 K, 2530 kPa, m1 = 1.605	1145.62
296.95 K, 7845 kPa, m1 = 1.605	1148.05
296.95 K, 17808 kPa, m1 = 1.605	1152.57
296.95 K, 25811 kPa, m1 = 1.605	1156.03
297.35 K, 2354 kPa, m1 = 0.6621	1061.06
297.35 K, 12415 kPa, m1 = 0.6621	1065.64
297.35 K, 21241 kPa, m1 = 0.6621	1069.52
297.35 K, 29243 kPa, m1 = 0.6621	1072.92
298.15 K, 101.33 kPa, m1 = 0.0906	1005.8
298.15 K, 101.33 kPa, m1 = 0.2832	1024.34
298.15 K, 101.33 kPa, m1 = 0.6621	1059.93
298.15 K, 101.33 kPa, m1 = 1.605	1144.13
298.15 K, 101.33 kPa, m1 = 3.089	1266.24
308.15 K, 101.33 kPa, m1 = 0.0906	1002.8
308.15 K, 101.33 kPa, m1 = 0.2832	1021.1
308.15 K, 101.33 kPa, m1 = 0.6621	1056.4
308.15 K, 101.33 kPa, m1 = 1.605	1139.99
308.15 K, 101.33 kPa, m1 = 3.089	1261.08
310.65 K, 2040 kPa, m1 = 3.089	1260.87
310.65 K, 17475 kPa, m1 = 3.089	1267.92
310.65 K, 24026 kPa, m1 = 3.089	1270.75
313 K, 3020 kPa, m1 = 0.2832	1020.66
313 K, 10866 kPa, m1 = 0.2832	1024.09
313 K, 21163 kPa, m1 = 0.2832	1028.44
313 K, 31204 kPa, m1 = 0.2832	1032.59
313.75 K, 2275 kPa, m1 = 0.0906	1001.71
313.75 K, 12572 kPa, m1 = 0.0906	1006.16
313.75 K, 28596 kPa, m1 = 0.0906	1012.88
318.15 K, 101.33 kPa, m1 = 0.0906	998.97
318.15 K, 101.33 kPa, m1 = 0.2832	1017.22
318.15 K, 101.33 kPa, m1 = 0.6621	1052.27
318.15 K, 101.33 kPa, m1 = 1.605	1135.39
318.15 K, 101.33 kPa, m1 = 3.089	1255.57
328.15 K, 101.33 kPa, m1 = 0.0906	994.42
328.15 K, 101.33 kPa, m1 = 0.2832	1012.6
328.15 K, 101.33 kPa, m1 = 0.6621	1047.5
328.15 K, 101.33 kPa, m1 = 1.605	1130.28
328.15 K, 101.33 kPa, m1 = 3.089	1249.72
338.15 K, 101.33 kPa, m1 = 0.0906	989.22
338.15 K, 101.33 kPa, m1 = 0.2832	1007.35
338.15 K, 101.33 kPa, m1 = 0.6621	1042.13
338.15 K, 101.33 kPa, m1 = 1.605	1124.64
338.15 K, 101.33 kPa, m1 = 3.089	1243.52
348.15 K, 101.33 kPa, m1 = 0.0906	983.48
348.15 K, 101.33 kPa, m1 = 0.2832	1001.55
348.15 K, 101.33 kPa, m1 = 0.6621	1036.22
348.15 K, 101.33 kPa, m1 = 1.605	1118.49
348.15 K, 101.33 kPa, m1 = 3.089	1236.98
348.4 K, 2157 kPa, m1 = 0.6621	1037.06
348.4 K, 11670 kPa, m1 = 0.6621	1041.32
348.4 K, 23850 kPa, m1 = 0.6621	1046.48
348.4 K, 29910 kPa, m1 = 0.6621	1048.86
348.45 K, 3334 kPa, m1 = 0.2832	1002.87
348.45 K, 13808 kPa, m1 = 0.2832	1007.4
348.45 K, 22536 kPa, m1 = 0.2832	1011.08
348.45 K, 27851 kPa, m1 = 0.2832	1013.21
348.5 K, 3589 kPa, m1 = 1.605	1119.98
348.5 K, 10787 kPa, m1 = 1.605	1123.27
348.5 K, 21516 kPa, m1 = 1.605	1128.02
348.5 K, 27694 kPa, m1 = 1.605	1130.57
349.05 K, 2275 kPa, m1 = 0.0906	983.91
349.05 K, 7668 kPa, m1 = 0.0906	986.28
349.05 K, 16573 kPa, m1 = 0.0906	990.13
349.05 K, 21241 kPa, m1 = 0.0906	992.14
373.2 K, 6276 kPa, m1 = 3.089	1222.39
373.2 K, 17358 kPa, m1 = 3.089	1227.68
373.2 K, 24674 kPa, m1 = 3.089	1230.96
398.15 K, 3432 kPa, m1 = 0.0906	949.25
398.15 K, 5511 kPa, m1 = 0.6621	1002.67
398.15 K, 8728 kPa, m1 = 0.0906	951.87
398.15 K, 15593 kPa, m1 = 0.6621	1007.74
398.15 K, 16181 kPa, m1 = 0.0906	955.54
398.15 K, 22554 kPa, m1 = 0.6621	1011.13
398.15 K, 22710 kPa, m1 = 0.0906	958.45
398.15 K, 29087 kPa, m1 = 0.6621	1013.99
398.2 K, 2942 kPa, m1 = 1.605	1082.97
398.2 K, 10787 kPa, m1 = 1.605	1087.05
398.2 K, 21025 kPa, m1 = 1.605	1092.08
398.2 K, 28753 kPa, m1 = 1.605	1095.49
398.3 K, 3511 kPa, m1 = 0.2832	967.1
398.3 K, 11925 kPa, m1 = 0.2832	971.24
398.3 K, 21398 kPa, m1 = 0.2832	975.83
398.3 K, 30636 kPa, m1 = 0.2832	979.93
448.15 K, 4570 kPa, m1 = 3.089	1157.85
448.15 K, 4903 kPa, m1 = 0.2832	922.17
448.15 K, 14573 kPa, m1 = 3.089	1163.98
448.15 K, 15593 kPa, m1 = 0.2832	928.54
448.15 K, 22869 kPa, m1 = 3.089	1168.32
448.15 K, 24340 kPa, m1 = 0.2832	933.52
448.3 K, 3668 kPa, m1 = 0.0906	902.88
448.3 K, 7924 kPa, m1 = 0.0906	905.5
448.3 K, 15436 kPa, m1 = 0.0906	910.16
448.3 K, 21810 kPa, m1 = 0.0906	913.8
448.33 K, 4805 kPa, m1 = 0.6621	957.8
448.33 K, 15200 kPa, m1 = 0.6621	963.27
448.33 K, 24026 kPa, m1 = 0.6621	968.45
448.33 K, 28675 kPa, m1 = 0.6621	970.94
448.45 K, 3099 kPa, m1 = 1.605	1038.18
448.45 K, 10375 kPa, m1 = 1.605	1042.6
448.45 K, 25497 kPa, m1 = 1.605	1050.41
472.53 K, 8081 kPa, m1 = 0.2832	897.8
472.53 K, 16985 kPa, m1 = 0.2832	904
472.53 K, 23614 kPa, m1 = 0.2832	908.3
474.75 K, 6943 kPa, m1 = 1.605	1014.9
474.75 K, 13317 kPa, m1 = 1.605	1020.2
474.75 K, 24595 kPa, m1 = 1.605	1027
475 K, 6198 kPa, m1 = 0.6621	929.3
475 K, 15926 kPa, m1 = 0.6621	936.2
475 K, 24517 kPa, m1 = 0.6621	941.7
479.05 K, 7590 kPa, m1 = 3.089	1129.2
479.05 K, 16907 kPa, m1 = 3.089	1135.6
479.05 K, 21771 kPa, m1 = 3.089	1138.5
521.05 K, 7924 kPa, m1 = 0.6621	872.4
521.05 K, 11846 kPa, m1 = 0.6621	876.3
521.05 K, 18221 kPa, m1 = 0.6621	882.3
522.63 K, 9473 kPa, m1 = 0.2832	834.6
522.63 K, 21516 kPa, m1 = 0.2832	846.6
522.63 K, 27047 kPa, m1 = 0.2832	851.1
522.91 K, 8493 kPa, m1 = 1.605	961.6
522.91 K, 14867 kPa, m1 = 1.605	967.1
522.91 K, 20050 kPa, m1 = 1.605	971.2
523.15 K, 7178 kPa, m1 = 3.089	1079.91
523.15 K, 12415 kPa, m1 = 3.089	1084.49
523.15 K, 21810 kPa, m1 = 3.089	1091.96
572.75 K, 12415 kPa, m1 = 0.6621	795.1
572.75 K, 19201 kPa, m1 = 0.6621	806
572.75 K, 24419 kPa, m1 = 0.6621	813.4
573.15 K, 11591 kPa, m1 = 1.605	896.3
573.15 K, 16338 kPa, m1 = 1.605	902.6
573.15 K, 20672 kPa, m1 = 1.605	907.3
575.75 K, 15022 kPa, m1 = 0.2832	750.9
575.75 K, 19201 kPa, m1 = 0.2832	758.8
575.75 K, 24516 kPa, m1 = 0.2832	767.7
600.25 K, 12650 kPa, m1 = 3.089	1019.35
600.25 K, 18534 kPa, m1 = 3.089	1025.9
600.25 K, 22143 kPa, m1 = 3.089	1029.61
